The text below walks through data of US9499538B2, “Estrogen receptor modulators and uses thereof” (Seragon Pharmaceuticals, Inc., priority 2012, dated 2016).

The subject of one assay is MCF-7 cells. The experiment in a line: Breast Cancer Cell Viability Assays (MCF-7, CellTiter-Glo). Type of assay: cell-based. The following applies: 5 days' compound exposure; for IC50: Homo sapiens, MCF7, 120 h. The gist of the method:
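Percent viability, background-subtracted against untreated wells, was taken from CellTiter-Glo luminescence after 5 days' exposure of MCF-7 cells. Compounds were tested at eleven semilog concentrations, final 0.3–0.000003 μM, in RPMI containing 10% FBS.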

A further assay deals with T1, ER-α in MCF-7 cells (Homo sapiens, UniProt P03372).
T1 construct: endogenous in cells; host or cells: MCF-7
T1 sequence (P03372 1-595): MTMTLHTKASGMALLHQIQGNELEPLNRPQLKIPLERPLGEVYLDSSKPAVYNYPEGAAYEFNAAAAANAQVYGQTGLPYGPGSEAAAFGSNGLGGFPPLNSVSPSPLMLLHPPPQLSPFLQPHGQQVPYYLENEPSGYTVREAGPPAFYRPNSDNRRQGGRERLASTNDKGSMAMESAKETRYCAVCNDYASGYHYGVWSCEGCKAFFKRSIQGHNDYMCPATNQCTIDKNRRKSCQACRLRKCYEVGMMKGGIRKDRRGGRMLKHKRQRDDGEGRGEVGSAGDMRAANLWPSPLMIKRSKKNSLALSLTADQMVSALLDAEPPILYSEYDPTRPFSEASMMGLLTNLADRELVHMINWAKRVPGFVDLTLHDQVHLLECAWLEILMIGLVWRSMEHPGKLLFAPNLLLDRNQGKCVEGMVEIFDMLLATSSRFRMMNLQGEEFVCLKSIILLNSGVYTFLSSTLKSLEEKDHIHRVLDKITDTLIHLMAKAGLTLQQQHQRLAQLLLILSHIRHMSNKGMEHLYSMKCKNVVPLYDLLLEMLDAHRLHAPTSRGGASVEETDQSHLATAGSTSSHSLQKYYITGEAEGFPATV
The experiment in a line: Breast Cancer Cell ER-α In Cell Western Assay (SP1). The assay is classed as cell-based. The following applies: 4 or 24 hr post compound addition; for Emax: MCF7, SP1 antibody, read-out: ER-α In Cell Western Assay (SP1) Max Response; for DC50: SP1 antibody, read-out: ER-α In Cell Western Assay (SP1) IC50. The procedure, abridged: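 ER-α levels quantified by in-cell western: SP1 signal normalised to DRAQ5 DNA stain, relative to untreated cells (% ER). Compounds at 0.3–0.000003 μM final, 11-point semilog series, 4 or 24 h exposure of MCF-7 cells grown in charcoal-stripped serum.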

The structures appear in SMILES notation.

As to `O=C(O)/C=C/c1ccc(/C(=C(\c2ccncc2Cl)C2CC2)c2ccc3[nH]nc(F)c3c2)cc1` [Example 157, (E)-3-(4-((E)-2-(3-Chloropyridin-4-yl)-2-cyclopropyl-1-(3-fluoro-1H-indazol-5-yl)vinyl)phenyl)acrylic acid], in the assay on MCF-7 cells, the “MCF7 Viability Assay Max Response” value is “++ (++ = a single % value ≧ 40%)” and the IC50 is at most 100 nM. In addition, at ER-α in MCF-7 cells, the Emax is at least 40% and the DC50 is at most 100 nM.
For the molecule `COc1cnc(/C(=C(\c2ccc(/C=C/C(=O)O)cc2)c2ccc3[nH]nc(F)c3c2)C2CC2)c(C)c1` [Example 158, (E)-3-(4-((E)-2-Cyclopropyl-1-(3-fluoro-1H-indazol-5-yl)-2-(5-methoxy-3-methylpyridin-2-yl)vinyl)phenyl)acrylic acid], in the assay with MCF-7 cells, the “MCF7 Viability Assay Max Response” value is “++ (++ = a single % value ≧ 40%)” and the IC50 was at most 100 nM. On ER-α in MCF-7 cells, the Emax was at least 40% and the DC50 is at most 100 nM.
`O=C(O)/C=C/c1cnc(/C(=C(\c2ccccc2)C2CCC2)c2ccc3[nH]nc(F)c3c2)cn1` [Example 159, (E)-3-(5-((Z)-2-Cyclobutyl-1-(3-fluoro-1H-indazol-5-yl)-2-phenylvinyl)pyrazin-2-yl)acrylic acid]: in the assay on MCF-7 cells, the “MCF7 Viability Assay Max Response” value is given as “++ (++ = a single % value ≧ 40%)” and the IC50 is at most 100 nM. Also, at ER-α in MCF-7 cells, the Emax is at least 40% and the DC50 is at most 100 nM.
Consider `O=C(O)/C=C/c1ccc(/C(=C(\c2ccccc2)C2CCC2)c2ccc3[nH]nc(F)c3c2)nc1` [Example 160, (E)-3-(6-((Z)-2-Cyclobutyl-1-(3-fluoro-1H-indazol-5-yl)-2-phenylvinyl)pyridin-3-yl)acrylic acid], for which, in the assay with MCF-7 cells, the “MCF7 Viability Assay Max Response” value was “++ (++ = a single % value ≧ 40%)” and the IC50 was at most 100 nM. At ER-α in MCF-7 cells, the Emax was at least 40% and the DC50 was at most 100 nM.
`O=C(O)/C=C/c1ncc(/C(=C(\c2ccccc2)C2CCC2)c2ccc3[nH]nc(F)c3c2)cc1F` [Example 161, (E)-3-(5-((Z)-2-Cyclobutyl-1-(3-fluoro-1H-indazol-5-yl)-2-phenylvinyl)-3-fluoropyridin-2-yl)acrylic acid]: in the assay on MCF-7 cells, the “MCF7 Viability Assay Max Response” value was “++ (++ = a single % value ≧ 40%)” and the IC50 was at most 100 nM. Also, on ER-α in MCF-7 cells, the Emax was at least 40% and the DC50 was at most 100 nM.
On to `O=C(O)/C=C/c1ncc(/C(=C(\c2ccccc2)C2CCC2)c2ccc3[nH]nc(F)c3c2)cn1` [Example 162, (E)-3-(5-((Z)-2-Cyclobutyl-1-(3-fluoro-1H-indazol-5-yl)-2-phenylvinyl)pyrimidin-2-yl)acrylic acid], for which, in the assay with MCF-7 cells, the “MCF7 Viability Assay Max Response” value is on record as “++ (++ = a single % value ≧ 40%)” and the 50% inhibitory concentration (IC50) was over 100 nM. On ER-α in MCF-7 cells, the Emax is at least 40% and the DC50 is over 100 nM.
With `CC/C(=C(/c1ccc(/C=C/C(=O)O)cc1)c1cccc2[nH]nc(F)c12)c1ccc(F)cc1Cl` [Example 163, (E)-3-(4-((E)-2-(2-Chloro-4-fluorophenyl)-1-(3-fluoro-1H-indazol-4-yl)but-1-en-1-yl)phenyl)acrylic acid], in the assay on MCF-7 cells, the “MCF7 Viability Assay Max Response” value is “++ (++ = a single % value ≧ 40%)” and the IC50 was at most 100 nM. Moreover, on ER-α in MCF-7 cells, the Emax was at least 40% and the DC50 is at most 100 nM.
Turning to `COc1nc(/C=C/C(=O)O)ccc1/C(=C(\c1ccccc1)C1CCC1)c1ccc2[nH]nc(F)c2c1` [Example 164, (E)-3-(5-((Z)-2-Cyclobutyl-1-(3-fluoro-1H-indazol-5-yl)-2-phenylvinyl)-6-methoxypyridin-2-yl)acrylic acid], in the assay with MCF-7 cells, the “MCF7 Viability Assay Max Response” value was “++ (++ = a single % value ≧ 40%)” and the IC50 was at most 100 nM. Moreover, on ER-α in MCF-7 cells, the Emax was at least 40% and the DC50 is at most 100 nM.
Regarding `COc1cc(/C(=C(\c2ccccc2)C2CCC2)c2ccc3[nH]nc(F)c3c2)cnc1/C=C/C(=O)O` [Example 165, (E)-3-(5-((Z)-2-Cyclobutyl-1-(3-fluoro-1H-indazol-5-yl)-2-phenylvinyl)-3-methoxypyridin-2-yl)acrylic acid], in the assay with MCF-7 cells, the “MCF7 Viability Assay Max Response” value is “++ (++ = a single % value ≧ 40%)” and the IC50 is over 100 nM. For the same molecule, at ER-α in MCF-7 cells, the Emax was at least 40% and the DC50 was at most 100 nM.
Turning to `O=C(O)/C=C/c1ccc(/C(=C(\c2ccccc2)C2CCC2)c2ccc3[nH]nc(F)c3c2)c(Cl)c1` [Example 166, (E)-3-(3-Chloro-4-((Z)-2-cyclobutyl-1-(3-fluoro-1H-indazol-5-yl)-2-phenylvinyl)phenyl)acrylic acid], in the assay with MCF-7 cells, the “MCF7 Viability Assay Max Response” value is on record as “++ (++ = a single % value ≧ 40%)” and the IC50 is at most 100 nM. On ER-α in MCF-7 cells, the Emax was at least 40% and the DC50 is at most 100 nM.
On to `O=C(O)/C=C/c1ccc(/C(=C(\c2ccccc2)C2CCC2)c2ccc3[nH]nc(F)c3c2)cc1Cl` [Example 167, (E)-3-(2-Chloro-4-((Z)-2-cyclobutyl-1-(3-fluoro-1H-indazol-5-yl)-2-phenylvinyl)phenyl)acrylic acid], for which, in the assay on MCF-7 cells, the “MCF7 Viability Assay Max Response” value is “++ (++ = a single % value ≧ 40%)” and the IC50 is at most 100 nM. Also, on ER-α in MCF-7 cells, the Emax is at least 40% and the DC50 was at most 100 nM.
On to `O=C(O)/C=C/c1ccc(/C(=C(\c2ccc(F)cc2Cl)C2CCC2)c2ccc3[nH]nc(F)c3c2)cn1` [Example 168, (E)-3-(5-((Z)-2-(2-Chloro-4-fluorophenyl)-2-cyclobutyl-1-(3-fluoro-1H-indazol-5-yl)vinyl)pyridin-2-yl)acrylic acid], for which, in the assay on MCF-7 cells, the “MCF7 Viability Assay Max Response” value is “++ (++ = a single % value ≧ 40%)” and the IC50 was at most 100 nM. Besides, at ER-α in MCF-7 cells, the Emax is at least 40% and the DC50 was at most 100 nM.
Consider `O=C(O)/C=C/c1ccc(/C(=C(\c2ccccc2Cl)C2CCC2)c2ccc3[nH]nc(F)c3c2)cn1` [Example 169, (E)-3-(5-((Z)-2-(2-Chlorophenyl)-2-cyclobutyl-1-(3-fluoro-1H-indazol-5-yl)vinyl)pyridin-2-yl)acrylic acid], for which, in the assay with MCF-7 cells, the “MCF7 Viability Assay Max Response” value is “++ (++ = a single % value ≧ 40%)” and the IC50 is at most 100 nM. For the same molecule, at ER-α in MCF-7 cells, the Emax was at least 40% and the DC50 is at most 100 nM.
`CC/C(=C(/c1ccc(/C=C/c2nnn[nH]2)cc1)c1ccc2[nH]nc(F)c2c1)c1ccc(F)cc1Cl` [Example 170, 5-((E)-1-(4-((E)-2-(2H-Tetrazol-5-yl)vinyl)phenyl)-2-(2-chloro-4-fluorophenyl)but-1-en-1-yl)-3-fluoro-1H-indazole]: in the assay on MCF-7 cells, the “MCF7 Viability Assay Max Response” value was “++ (++ = a single % value ≧ 40%)” and the IC50 was at most 100 nM. Further, on ER-α in MCF-7 cells, the Emax is at least 40% and the DC50 was at most 100 nM.
In the case of `CC/C(=C(/c1ccc(/C=C/c2nnn[nH]2)cc1)c1ccc2[nH]nc(F)c2c1)c1ccncc1Cl` [Example 171, 5-((E)-1-(4-((E)-2-(2H-Tetrazol-5-yl)vinyl)phenyl)-2-(3-chloropyridin-4-yl)but-1-en-1-yl)-3-fluoro-1H-indazole], in the assay with MCF-7 cells, the “MCF7 Viability Assay Max Response” value was “++ (++ = a single % value ≧ 40%)” and the IC50 was at most 100 nM. At ER-α in MCF-7 cells, the Emax is at least 40% and the DC50 was at most 100 nM.
For `Fc1n[nH]c2ccc(/C(=C(/c3ccncc3Cl)C3CCC3)c3ccc(/C=C/c4nnn[nH]4)cc3)cc12` [Example 172, 5-((E)-1-(4-((E)-2-(2H-Tetrazol-5-yl)vinyl)phenyl)-2-(3-chloropyridin-4-yl)-2-cyclobutylvinyl)-3-fluoro-1H-indazole], in the assay with MCF-7 cells, the “MCF7 Viability Assay Max Response” value is “++ (++ = a single % value ≧ 40%)” and the IC50 is at most 100 nM. For the same molecule, on ER-α in MCF-7 cells, the Emax is at least 40% and the DC50 was at most 100 nM.
`Fc1ccc(/C(=C(\c2ccc(/C=C/c3nnn[nH]3)cc2)c2cccc3[nH]ncc23)C2CCC2)c(Cl)c1` [Example 173, 4-((E)-1-(4-((E)-2-(2H-Tetrazol-5-yl)vinyl)phenyl)-2-(2-chloro-4-fluorophenyl)-2-cyclobutylvinyl)-1H-indazole]: in the assay on MCF-7 cells, the “MCF7 Viability Assay Max Response” value is reported as “++ (++ = a single % value ≧ 40%)” and the IC50 is at most 100 nM. In addition, on ER-α in MCF-7 cells, the Emax is at least 40% and the DC50 was at most 100 nM.
Take `Fc1n[nH]c2ccc(/C(=C(/c3ccccc3)C3CCC3)c3ccc(/C=C/c4nnn[nH]4)cc3)cc12` [Example 174, 5-((E)-1-(4-((E)-2-(1H-Tetrazol-5-yl)vinyl)phenyl)-2-cyclobutyl-2-phenylvinyl)-3-fluoro-1H-indazole]: in the assay on MCF-7 cells, the “MCF7 Viability Assay Max Response” value is on record as “++ (++ = a single % value ≧ 40%)” and the IC50 was at most 100 nM. On ER-α in MCF-7 cells, the Emax is at least 40% and the DC50 is at most 100 nM.
